The values that follow come from publication PMC12867150, “A fungi-derived cyclic peptide enhances Th9-mediated antitumor immunity by targeting ZAP70 and SREBP1” (The Journal of Clinical Investigation, 2025).

“And” between values parts separate entries of the source, which are not always exact repeats. Equal values may be shown once.

In one experiment the test system is gene sets in Th9 cells. Put plainly: GSEA / pathway enrichment of RNA-seq data. The following applies: result in words. It counts as cell-based, mouse. The protocol:
GSEA was performed using the clusterProfiler R package (v4.12.6), with curated gene sets obtained from the Gene Ontology and Kyoto Encyclopedia of Genes and Genomes databases. Enrichment plots were generated using the GseaVis R package (v0.1.0) to facilitate data visualization.

The next experiment relates to Th2 cells. Put plainly: Th2 polarization, IL-4 by flow cytometry (Figure 1G). It counts as cell-based, mouse. The protocol:
Naive CD4^+ T cells were isolated from the spleens of C57BL/6J or CD45.1^+ OT-II mice using the MojoSort Mouse CD4 Naive T Cell Isolation Kit (BioLegend, catalog 480040), following the manufacturer’s protocol. Purified cells were cultured in RPMI-1640 medium supplemented with 10% FBS, 1% penicillin-streptomycin, and 0.1% β-mercaptoethanol (Gibco, catalog 21985023).
T cell polarization was initiated under plate-bound anti-CD3 (2 μg/mL, clone 17A2, BioXCell, catalog BE0002) and soluble anti-CD28 (1 μg/mL, clone 37.51, BioXCell, catalog BE0015-1) stimulation, with the addition of cytokines and neutralizing antibodies specific to each subset. For Th9 cells, these included IL-4 (10 ng/mL, Peprotech, catalog 400-04), TGF-β (1 ng/mL, EPOTO Biotech, catalog HF-2021), anti–IL-12 (5 μg/mL, clone C17.8, BioXCell, catalog BE0051), and anti–IFN-γ (10 μg/mL, clone XMG1.2, BioXCell, catalog BE0055); for Th1 cells, these included IL-12 (10 ng/mL, GenScript, catalog Z03211-50) and anti–IL-4 (5 μg/mL, clone 11B11, BioXCell, catalog BE0045); for Th2 cells, these included IL-4 (50 ng/mL), anti–IFN-γ (20 μg /mL), anti–IL-12 (5 μg/mL), Th17 cells: IL-6 (20 ng/mL, EPOTO Biotech, catalog MF-1006), TGF-β (1 ng/mL), IL-1β (10 ng/mL, Peprotech, catalog AF-211-11B), anti–IFN-γ (10 μg/mL), anti–IL-12 (5 μg/mL), and anti–IL-4 (5 μg/mL); and for Tregs, these included TGF-β (3 ng/mL). […]
(In general: In flow cytometry, cells or beads pass a laser one at a time.)

Take anteiso-C15 Leu7 surfactin [EpA]: in the experiment on gene sets in Th9 cells, the “glycolytic and carbon metabolism pathways” value is on record as “significant enrichment”; the lipid-related pathways entry is recorded as “markedly downregulated”; the “oxidative phosphorylation-related gene sets” value is “upregulation”. Besides, in the experiment on Th2 cells (EpA 10 μM, individual replicates, n = 4), the “IL-4 expression under Th2 polarization” value is 38.3947 and 41.0302 and 36.7821 and 38.8006. Further, the “effect on Th2 differentiation” value with Th2 cells (result in words) is recorded as “only a minor increase in Th2 differentiation”.
